Source: patent US20250353864A1, “INDAZOLE CONTAINING MACROCYCLES AND THEIR USE” (BLOSSOMHILL THERAPEUTICS, INC., priority 2022, published 2025)

How the values were obtained:
Assay type in all cases: biochemical
EGFR WT = EGFR WT (Homo sapiens (Human), UniProt P00533); test: HotSpot radiometric kinase assay (Reaction Biology), EGFR WT; conditions: 10 μM ATP
Method in brief: (§1)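 IC50 values derive from curve fits of 33P incorporation measured by P81 filter binding. ATP was 10 μM final; incubation lasted 120 min at room temperature after ~20 min compound preincubation.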

EGFR L858R mutant = EGFR L858R mutant (Homo sapiens (Human), UniProt P00533, L858R); test: HotSpot radiometric kinase assay, EGFR L858R mutant; conditions: 10 μM ATP
Method in brief: as §1

[1] = target: EGFR Δ746-750/C797S mutant (Homo sapiens (Human), UniProt P00533, C797S/DEL746-750); test: HotSpot radiometric kinase assay, EGFR Δ746-750/C797S mutant; conditions: 10 μM ATP
Method in brief: as §1

[2] = target: EGFR L858R/T790M/C797S mutant (Homo sapiens (Human), UniProt P00533, C797S/L858R/T790M); test: HotSpot radiometric kinase assay, EGFR L858R/T790M/C797S mutant; conditions: 10 μM ATP
Method in brief: as §1

EGFR (D770_N771insNPG) = EGFR (D770_N771insNPG) (Homo sapiens (Human), UniProt P00533, INS770NPG); test: HotSpot radiometric kinase assay, EGFR (D770_N771insNPG); conditions: 10 μM ATP, read-out: EGFR (Δ770_N771insNPG) IC50
Method in brief: as §1

EGFR L858R/T790M mutant = EGFR L858R/T790M mutant (Homo sapiens (Human), UniProt P00533, L858R/T790M); test: HotSpot radiometric kinase assay, EGFR L858R/T790M mutant; conditions: 10 μM ATP
Description: Biochemical Assays for Inhibition of Wild-Type and Mutant EGFRs
Briefly, specific kinase/substrate pairs along with required cofactors were prepared in reaction buffer; 20 mM Hepes pH 7.5, 10 mM […], 1 mM EGTA, 0.02% Brij35, 0.02 mg/ml BSA, 0.1 mM Na3VO4, 2 mM DTT, 1% DMSO. Compounds were delivered into the reaction, followed […] later by addition of a mixture of ATP (Sigma, St. Louis MO) and ^33P ATP (Perkin Elmer, Waltham MA) to a final concentration of 10 μM. Reactions were carried out at room temperature for 120 min, followed by spotting of the reactions onto P81 ion exchange filter paper (Whatman Inc., Piscataway, NJ). Unbound phosphate was removed by extensive washing of filters in 0.75% phosphoric acid. […] IC50 values and curve fits were obtained using Prism (GraphPad Software).

EGFR Δ746-750 mutant = EGFR Δ746-750 mutant (Homo sapiens (Human), UniProt P00533, DEL746-750); test: HotSpot radiometric kinase assay, EGFR Δ746-750 mutant; conditions: 10 μM ATP
Method in brief: as §1

EGFR Δ746-750/C797S mutant, sequence (P00533 other isoform, or with tags, fused parts or gaps C797S/del 1-668/del 746-750 limits assumed): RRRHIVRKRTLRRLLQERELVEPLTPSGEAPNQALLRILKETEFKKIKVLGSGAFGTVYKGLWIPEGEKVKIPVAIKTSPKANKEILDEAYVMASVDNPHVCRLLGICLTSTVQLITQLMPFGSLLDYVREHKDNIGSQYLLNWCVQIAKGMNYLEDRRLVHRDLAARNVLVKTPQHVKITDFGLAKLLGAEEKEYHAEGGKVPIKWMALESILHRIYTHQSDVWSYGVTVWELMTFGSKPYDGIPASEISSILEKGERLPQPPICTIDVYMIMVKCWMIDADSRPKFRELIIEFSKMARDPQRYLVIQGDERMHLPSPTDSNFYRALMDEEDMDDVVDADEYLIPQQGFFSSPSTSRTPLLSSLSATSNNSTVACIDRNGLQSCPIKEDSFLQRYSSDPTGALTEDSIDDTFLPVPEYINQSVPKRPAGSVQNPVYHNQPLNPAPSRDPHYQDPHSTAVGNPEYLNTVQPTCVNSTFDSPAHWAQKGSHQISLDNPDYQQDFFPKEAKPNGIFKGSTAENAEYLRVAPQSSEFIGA
EGFR Δ746-750 mutant, sequence (P00533 other isoform, or with tags, fused parts or gaps del 1-668/del 746-750 limits assumed): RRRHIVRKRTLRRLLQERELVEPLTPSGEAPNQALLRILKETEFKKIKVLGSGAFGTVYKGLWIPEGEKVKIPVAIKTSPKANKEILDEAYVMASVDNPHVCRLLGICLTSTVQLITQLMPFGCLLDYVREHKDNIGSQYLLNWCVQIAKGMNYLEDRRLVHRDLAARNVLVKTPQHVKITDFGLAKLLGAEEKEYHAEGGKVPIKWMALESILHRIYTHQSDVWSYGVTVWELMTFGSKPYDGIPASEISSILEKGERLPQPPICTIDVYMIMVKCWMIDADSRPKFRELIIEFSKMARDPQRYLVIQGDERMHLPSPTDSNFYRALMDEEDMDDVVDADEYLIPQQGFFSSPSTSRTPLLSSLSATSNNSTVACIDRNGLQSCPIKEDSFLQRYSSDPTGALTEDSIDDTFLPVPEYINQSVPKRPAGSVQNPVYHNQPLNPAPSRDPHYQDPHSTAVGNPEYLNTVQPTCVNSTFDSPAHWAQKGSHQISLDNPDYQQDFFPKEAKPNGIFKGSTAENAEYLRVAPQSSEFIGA
EGFR WT, sequence (P00533 25-1210): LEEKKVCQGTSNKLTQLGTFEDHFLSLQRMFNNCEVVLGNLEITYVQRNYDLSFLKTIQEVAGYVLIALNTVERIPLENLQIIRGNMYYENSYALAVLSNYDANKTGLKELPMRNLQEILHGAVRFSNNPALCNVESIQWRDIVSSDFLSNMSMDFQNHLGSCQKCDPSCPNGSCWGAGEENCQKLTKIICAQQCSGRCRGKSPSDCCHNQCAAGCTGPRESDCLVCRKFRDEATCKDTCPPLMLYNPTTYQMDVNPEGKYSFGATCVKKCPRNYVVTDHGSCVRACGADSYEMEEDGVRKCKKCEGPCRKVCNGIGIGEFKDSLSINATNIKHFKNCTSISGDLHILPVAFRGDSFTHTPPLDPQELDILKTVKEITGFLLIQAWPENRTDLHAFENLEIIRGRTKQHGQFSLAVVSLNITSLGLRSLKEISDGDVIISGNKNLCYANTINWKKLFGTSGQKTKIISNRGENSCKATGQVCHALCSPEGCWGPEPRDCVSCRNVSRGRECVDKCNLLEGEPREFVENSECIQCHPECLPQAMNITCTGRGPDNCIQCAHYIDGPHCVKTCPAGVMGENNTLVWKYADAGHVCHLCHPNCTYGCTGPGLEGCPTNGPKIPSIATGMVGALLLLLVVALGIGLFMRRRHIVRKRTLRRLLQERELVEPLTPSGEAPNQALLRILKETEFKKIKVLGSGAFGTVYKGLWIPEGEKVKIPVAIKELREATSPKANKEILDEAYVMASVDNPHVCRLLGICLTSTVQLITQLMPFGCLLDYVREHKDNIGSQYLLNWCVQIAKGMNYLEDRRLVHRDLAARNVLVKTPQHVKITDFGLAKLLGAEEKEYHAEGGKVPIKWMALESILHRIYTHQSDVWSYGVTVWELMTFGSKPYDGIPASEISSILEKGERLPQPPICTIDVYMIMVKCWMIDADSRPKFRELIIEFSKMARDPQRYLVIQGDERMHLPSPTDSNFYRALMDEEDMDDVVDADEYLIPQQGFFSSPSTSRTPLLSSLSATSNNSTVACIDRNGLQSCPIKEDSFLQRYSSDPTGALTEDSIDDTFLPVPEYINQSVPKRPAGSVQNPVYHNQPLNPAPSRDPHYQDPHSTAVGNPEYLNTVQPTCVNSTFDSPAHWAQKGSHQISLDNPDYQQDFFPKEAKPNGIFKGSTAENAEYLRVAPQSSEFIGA
EGFR L858R/T790M mutant, sequence (P00533 25-1210 T790M/L858R): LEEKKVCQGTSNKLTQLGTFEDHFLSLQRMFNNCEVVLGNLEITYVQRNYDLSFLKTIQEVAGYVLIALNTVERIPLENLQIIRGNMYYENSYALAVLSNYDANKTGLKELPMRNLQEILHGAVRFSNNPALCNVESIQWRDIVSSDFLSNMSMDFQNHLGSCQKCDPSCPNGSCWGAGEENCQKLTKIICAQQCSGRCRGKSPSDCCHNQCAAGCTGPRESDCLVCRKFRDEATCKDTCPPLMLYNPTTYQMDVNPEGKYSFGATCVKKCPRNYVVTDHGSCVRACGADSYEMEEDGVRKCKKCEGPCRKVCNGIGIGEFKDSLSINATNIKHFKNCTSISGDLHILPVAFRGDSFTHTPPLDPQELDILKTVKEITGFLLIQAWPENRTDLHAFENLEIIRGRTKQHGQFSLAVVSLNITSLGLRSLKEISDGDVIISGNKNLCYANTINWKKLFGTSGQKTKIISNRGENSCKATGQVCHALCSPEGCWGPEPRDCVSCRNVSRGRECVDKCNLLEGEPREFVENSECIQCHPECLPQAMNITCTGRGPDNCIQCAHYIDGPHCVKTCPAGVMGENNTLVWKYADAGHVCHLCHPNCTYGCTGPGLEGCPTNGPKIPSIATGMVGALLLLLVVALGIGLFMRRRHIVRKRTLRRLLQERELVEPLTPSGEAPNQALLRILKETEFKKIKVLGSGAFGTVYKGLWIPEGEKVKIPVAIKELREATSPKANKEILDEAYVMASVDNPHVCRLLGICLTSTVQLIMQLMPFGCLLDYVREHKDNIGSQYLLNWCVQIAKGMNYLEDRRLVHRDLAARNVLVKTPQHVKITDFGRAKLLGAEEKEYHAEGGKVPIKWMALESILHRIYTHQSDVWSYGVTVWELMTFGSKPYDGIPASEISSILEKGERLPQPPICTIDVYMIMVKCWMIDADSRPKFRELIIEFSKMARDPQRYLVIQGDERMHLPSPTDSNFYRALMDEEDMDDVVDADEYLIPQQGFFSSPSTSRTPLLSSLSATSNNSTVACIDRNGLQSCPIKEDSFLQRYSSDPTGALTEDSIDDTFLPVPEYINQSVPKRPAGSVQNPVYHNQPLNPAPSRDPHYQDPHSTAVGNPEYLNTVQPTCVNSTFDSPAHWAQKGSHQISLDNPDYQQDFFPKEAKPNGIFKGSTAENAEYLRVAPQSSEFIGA
EGFR L858R mutant, sequence (P00533 25-1210 L858R): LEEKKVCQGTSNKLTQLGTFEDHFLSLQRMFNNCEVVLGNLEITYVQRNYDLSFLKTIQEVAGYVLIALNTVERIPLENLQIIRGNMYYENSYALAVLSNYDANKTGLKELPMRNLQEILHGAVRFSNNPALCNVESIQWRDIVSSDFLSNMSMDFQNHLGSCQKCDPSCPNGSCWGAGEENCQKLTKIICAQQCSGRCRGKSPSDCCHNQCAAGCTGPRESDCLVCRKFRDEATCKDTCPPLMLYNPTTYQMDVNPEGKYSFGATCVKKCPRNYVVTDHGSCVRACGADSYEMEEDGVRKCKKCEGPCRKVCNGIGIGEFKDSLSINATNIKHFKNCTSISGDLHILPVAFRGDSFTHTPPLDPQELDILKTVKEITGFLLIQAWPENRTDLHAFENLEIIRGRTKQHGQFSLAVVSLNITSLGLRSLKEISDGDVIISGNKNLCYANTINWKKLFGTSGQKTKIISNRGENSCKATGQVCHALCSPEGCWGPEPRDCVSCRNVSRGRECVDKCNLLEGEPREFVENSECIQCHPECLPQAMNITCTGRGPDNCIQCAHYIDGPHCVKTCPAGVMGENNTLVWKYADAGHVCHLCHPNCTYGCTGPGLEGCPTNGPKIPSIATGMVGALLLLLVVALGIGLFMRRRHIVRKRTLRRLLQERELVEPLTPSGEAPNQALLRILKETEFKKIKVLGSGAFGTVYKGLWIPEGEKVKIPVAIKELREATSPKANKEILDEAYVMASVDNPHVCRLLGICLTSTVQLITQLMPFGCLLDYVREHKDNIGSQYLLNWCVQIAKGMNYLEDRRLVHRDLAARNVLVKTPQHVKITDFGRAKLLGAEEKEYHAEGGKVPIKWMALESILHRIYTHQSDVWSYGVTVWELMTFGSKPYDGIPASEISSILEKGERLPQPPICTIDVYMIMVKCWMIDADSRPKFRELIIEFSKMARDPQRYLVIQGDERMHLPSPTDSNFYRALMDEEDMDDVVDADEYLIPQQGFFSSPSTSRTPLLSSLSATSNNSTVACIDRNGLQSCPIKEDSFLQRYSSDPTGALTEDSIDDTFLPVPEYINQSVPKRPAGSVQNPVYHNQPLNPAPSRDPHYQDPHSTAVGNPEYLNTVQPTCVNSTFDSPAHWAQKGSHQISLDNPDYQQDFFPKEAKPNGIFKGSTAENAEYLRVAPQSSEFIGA

IC50 (EGFR WT) [µM] | IC50 (EGFR L858R mutant) [µM] | IC50 [1] [µM] | IC50 [2] [µM] | IC50 (EGFR (D770_N771insNPG)) [µM] | IC50 (EGFR L858R/T790M mutant) [µM] | IC50 (EGFR Δ746-750 mutant) [µM] | SMILES
0.0583 | 0.0163 | 0.00142 | 0.00113 | 0.137 | 0.001 | 0.00517 | CCOc1nn(CCO)c2c1/C=C/c1n[nH]c3ccc(cc13)-c1c(C)nn(C)c1OC[C@H](C)N(C1CC1)C2 [Example 205, 2-[(11S,17E)-12-cyclopropyl-16-ethoxy-6,8,11-trimethyl-2,8,10,11,12,13-hexahydro-14H-3,5-ethenotripyrazolo[3,4-f:3′,4′-j:4″,3″- n][1,4]oxazacyclopentadecin-14-yl]ethan-1-ol]
0.139 | 0.0247 | 0.0066 | 0.00137 | 0.3 | 0.00054 | 0.024 | C[C@H]1CN(C)Cc2c(c(O[C@H]3CCN(S(C)(=O)=O)C3)nn2CCO)/C=C/c2n[nH]c3ccc(cc23)-c2cnn(C)c2O1 [Example 182, 2-[(10S,17E)-16-{[(3S)-1-(methanesulfonyl)pyrrolidin-3-yl]oxy}-8,10,12-trimethyl-2,8,10,11,12,13-hexahydro-14H-3,5-ethenotripyrazolo[3,4-f:3′,4′-j:4″,3″- n][1,4]oxazacyclopentadecin-14-yl]ethan-1-ol]
0.0717 | 0.0371 | 0.00194 | 0.00142 | 0.107 | 0.00069 | 0.00361 | CCOc1nn(CCO)c2c1/C=C/c1n[nH]c3ccc(cc13)-c1cnn(C)c1O[C@H](C)CN(C(C)=O)C2 [Example 217, 1-[(10R,17E)-16-ethoxy-14-(2-hydroxyethyl)-8,10-dimethyl-2,8,10,11,13,14-hexahydro-12H-3,5-ethenotripyrazolo[3,4-f:3′,4′-j:4″,3″-n][1,4]oxazacyclopentadecin-12-yl]ethan-1-one]
0.00549 | 0.0055 | 0.00193 | 0.00253 | 0.0201 | 0.00177 | 0.00185 | CCOc1nn(CCO)c2c1/C=C/c1n[nH]c3ccc(cc13)-c1c(C)nn(C)c1O[C@H](C)CN(C1CC1)C2 [Example 204]
0.179 | 0.0988 | 0.0207 | 0.002 | 0.423 | 0.00338 | 0.045 | Cc1nn(C)c2c1-c1ccc3[nH]nc(c3c1)/C=C/c1c(OC(C)C)nn(CCO)c1CN(C(C)C)C[C@@H](C)O2 [Example 202, 2-{(10R,17E)-6,8,10-trimethyl-12-(propan-2-yl)-16-[(propan-2-yl)oxy]-2,8,10,11,12,13-hexahydro-14H-3,5-ethenotripyrazolo[3,4-f:3′,4′-j:4″,3″-n][1,4]oxazacyclopentadecin-14-yl}ethan-1-ol]

Second part, the molecule before the results:

SMILES | IC50 (EGFR WT) [µM] | IC50 (EGFR L858R mutant) [µM] | IC50 [1] [µM] | IC50 [2] [µM] | IC50 (EGFR (D770_N771insNPG)) [µM] | IC50 (EGFR L858R/T790M mutant) [µM] | IC50 (EGFR Δ746-750 mutant) [µM]
Cc1c2c(nn1CCO)CNC[C@H](C)Oc1c(cnn1C)-c1ccc3[nH]nc(c3c1)/C=C/2 [Example 49, 2-[(10S,17E)-8,10,16-trimethyl-2,8,10,11,12,13-hexahydro-15H-3,5-ethenotripyrazolo[3,4-f:3′,4′-j:4″,3″- n][1,4]oxazacyclopentadecin-15-yl]ethan-1-ol] | > 1 | 0.862 | 1.04 | 0.0844 | > 1 | 0.126 | 0.617
Cc1c2c(nn1CCC(C)O)CN(C)C[C@H](C)Oc1c(cnn1C)-c1ccc3[nH]nc(c3c1)/C=C/2 (stereo partly drawn) [Example 95, 4-[(10S,17E)-8,10,12,16-tetramethyl-2,8,10,11,12,13-hexahydro-15H-3,5-ethenotripyrazolo[3,4-f:3′,4′-j:4″,3″-n][1,4]oxazacyclopentadecin-15-yl]butan-2-ol] | 0.167 | 0.0301 | 0.023 | 0.00493 | 0.524 | 0.00195 | 0.121
C[C@H]1CN(C)Cc2cnn(C)c2/C=C/c2n[nH]c3ccc(cc23)-c2cnn(C)c2O1 [Example 113, (10S,17E)-8,10,12,16-tetramethyl-2,10,11,12,13,16-hexahydro-8H-3,5-ethenotripyrazolo[4,3-f:3′,4′-j:4″,3″-n][1,4]oxazacyclopentadecine] | 0.488 | 0.0968 | 0.0674 | 0.00991 | 0.727 | 0.00866 | 0.0699
Cc1c2c(nn1[C@H]1CCNC[C@@H]1O)OCCCOc1c(cnn1C)-c1ccc3[nH]nc(c3c1)/C=C/2 (racemic) [Example 81, (rac)-4-[(17E)-8,16-dimethyl-2,8,11,12-tetrahydro-10H,15H-3,5-etheno[1,5]dioxacyclopentadecino[10,11-c:15,14-c′:6,7-c″ ]tripyrazol-15-yl]piperidin-3-ol] | 0.0438 | 0.0168 | 0.0334 | 0.00742 | 0.0403 | 0.0017 | 0.0296
Cc1nn([C@H]2CCOC[C@@H]2O)c2c1/C=C/c1n[nH]c3ccc(cc13)-c1cnn(C)c1OCCCO2 (racemic) [Example 85, (rac)-1,5-anhydr-3o-2,3-dideoxy-3-[(17E)-8,16-dimethyl-2,8,11,12-tetrahydro-10H,14H-3,5-etheno[1,5]dioxacyclopentadecino[10,11-c:15,14-c′:6,7-c″ ]tripyrazol-14-yl]-L-threo-pentitol] | > 1 | > 1 | > 1 | > 1 | > 1 | > 1 | > 1
Cc1nn(CCO)c2c1/C=C/c1n[nH]c3ccc(cc13)-c1c(C)nn(C)c1O[C@@H](C)CN(C)C2 [Example 138, 2-[(10S,17E)-6,8,10,12,16-pentamethyl-2,8,10,11,12,13-hexahydro-14H-3,5-ethenotripyrazolo[3,4-f:3′,4′-j:4″,3″-n][1,4]oxazacyclopentadecin-14-yl]ethan-1-o] | 0.0238 | 0.0035 | 0.0014 | 0.00055 | 0.0852 | 0.00061 | 0.00364
C[C@H]1CN(C)Cc2c(c(OC3CCN(S(C)(=O)=O)CC3)nn2CCO)/C=C/c2n[nH]c3ccc(cc23)-c2cnn(C)c2O1 [Example 175, 2-[(10S,17E)-16-{[1-(methanesulfonyl)piperidin-4-yl]oxy}-8,10,12-trimethyl-2,8,10,11,12,13-hexahydro-14H-3,5-ethenotripyrazolo[3,4-f:3′,4′-j:4″,3″- n][1,4]oxazacyclopentadecin-14-yl]ethan-1-ol] | 0.176 | 0.0426 | 0.00897 | 0.00339 | 0.713 | 0.00206 | 0.0678
Cc1c2c(nn1CCN1CCCC1)CN(C)C[C@@H](C)Oc1c(cnn1C)-c1ccc3[nH]nc(c3c1)/C=C/2 [Example 121, (10R,17E)-8,10,12,16-tetramethyl-15-[2-(pyrrolidin-1-yl)ethyl]-2,10,11,12,13,15-hexahydro-8H-3,5-ethenotripyrazolo[3,4-f:3′,4′-j:4″,3″- n][1,4]oxazacyclopentadecine] | 0.295 | 0.0941 | 0.0413 | 0.013 | 0.283 | 0.00614 | 0.0407
Cc1nn(C)c2c1/C=C/c1n[nH]c3ccc(cc13)-c1cnn(C)c1O[C@@H](C)CN(C1COC1)C2 [Example 140, (10S,17E)-8,10,14,16-tetramethyl-12-(oxetan-3-yl)-2,10,11,12,13,14-hexahydro-8H-3,5-ethenotripyrazolo[3,4-f:3′,4′-j:4″,3″-n][1,4]oxazacyclopentadecine] | 0.0848 | 0.0116 | 0.00614 | 0.0013 | 0.186 | 0.00119 | 0.00935
Cc1nn([C@H]2CN(C)C[C@@H]2O)c2c1/C=C/c1n[nH]c3ccc(cc13)-c1cnn(C)c1CN(C)CCO2 (racemic) [Example 98, (rac)-(3S,4S)-1-methyl-4-[(17E)-8,10,16-trimethyl-2,8,9,10,11,12-hexahydro-14H-3,5-ethenotripyrazolo[3,4-f:4′,3′-j:4″,3″-n][1,4]oxazacyclopentadecin-14-yl]pyrrolidin-3-ol] | 0.119 | 0.0411 | 0.027 | 0.0121 | 0.148 | 0.00356 | 0.0849
